# In PubChem BioAssay (NCI):
# Where “and” joins values, the source holds several entries; their conditions need not be identical. Identical values can stand only once.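 These data come from cells grown in 96-well plates and exposed to compound for 48 hours at five concentrations. The concentration for 50% growth inhibition is given as GI50. TGI is the concentration that stops growth completely.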
# Assays:
# Assay in all cases: DTP human tumour cell line panel, 48 h
# SF-268 CNS = system: SF-268 CNS
# MALME-3M melanoma = system: MALME-3M melanoma
# SF-539 CNS = system: SF-539 CNS
# TK-10 renal = system: TK-10 renal
# DU-145 prostate = system: DU-145 prostate
# KM12 colon = system: KM12 colon
# UACC-62 melanoma = system: UACC-62 melanoma
# OVCAR-8 ovarian = system: OVCAR-8 ovarian
# OVCAR-5 ovarian = system: OVCAR-5 ovarian
# SK-MEL-5 melanoma = system: SK-MEL-5 melanoma
Structure (SMILES),GI50 (SF-268 CNS) [µM],TGI (SF-268 CNS) [µM],GI50 (MALME-3M melanoma) [µM],TGI (MALME-3M melanoma) [µM],GI50 (SF-539 CNS) [µM],TGI (SF-539 CNS),GI50 (TK-10 renal) [µM],TGI (TK-10 renal) [µM],GI50 (DU-145 prostate) [µM],TGI (DU-145 prostate) [µM],GI50 (KM12 colon) [µM],TGI (KM12 colon) [µM],GI50 (UACC-62 melanoma) [µM],TGI (UACC-62 melanoma),GI50 (OVCAR-8 ovarian) [µM],TGI (OVCAR-8 ovarian) [µM],GI50 (OVCAR-5 ovarian) [µM],TGI (OVCAR-5 ovarian) [µM],GI50 (SK-MEL-5 melanoma) [µM],TGI (SK-MEL-5 melanoma) [µM]
Cc1cn2c(/C=C3/C(=O)Nc4ccc(F)cc43)c(C)nc2s1,12.6,> 50,7.26,> 50,7.29,18.4 µM,22.2,> 50,9.58,32.3,2.34,> 50,3.85,48.3 µM,10.4,> 50,14.6,> 50,2.31,9.61
CN1CCN(Cc2ccc(NC(=O)c3cncc(C#Cc4cnn5ccccc45)c3)cc2C(F)(F)F)CC1,1.05,2.54,0.604,1.45,0.518,1.25 µM,1.61,4.13,1.17,3.95,0.016,1.14,0.996,2.38 µM,1.22,4.68,1.12,5.09,0.902,1.72
C=C1C(=O)OC2CC3(C)CCCC(C)C3=CC12 (stereo not given),–,23.1,–,16.7,–,3.79 µM,–,10.1,–,14.7,–,25.1,–,16.2 µM,–,37.3,–,23.4,–,4.6
COC(=O)c1ccc2c(c1)c1c(C)c3ccncc3c(C)c1n2C,0.114,> 100,0.201,11.2,0.332,45.1 µM,0.89,70.3,0.313,> 100,0.262,> 100,0.191,2.63 µM,0.121,> 100,0.718,> 100,0.232,0.912
CC[C@@H](C)Nc1cc(C(=O)NC2CC3CCC(C2)N3c2ccc(C(=O)C3CC3)cn2)c(C)cc1C(N)=O (stereo not given in full),0.357,> 100,0.0383,> 75.5,0.0679,> 100 µM,0.0387,89,0.0663,> 62.9,0.0239,0.0884,0.036,12.1 µM,0.047,> 100,0.0706,> 100,0.0599,8.35
CCc1nc2cc(/C=C/C(=O)NO)ccc2c(=O)n1CCc1ccc(F)cc1,2.14,5.98,1.83,12.4,1.73,5.53 µM,1.42,4.89,1.94,8.67,2.2,14.3,–,–,–,–,2.19,> 100,0.903,2.21
C1CCN2CC3CCCN4CCCC(C2C1)C34 (stereo not given),–,> 100,–,> 100,–,> 100 µM,–,> 100,–,> 100,–,> 100,–,> 100 µM,–,> 100,–,> 100,–,> 100
CCCN1C(=O)/C(=C/c2ccc(O)cc2)SC1=Nc1ccc(OC)cc1,17.3,74.9,–,–,16.2,33.1 µM,18.4,39,10.3,29.5,10.6,28.7,17.6,33.7 µM,18.2,37.1,15.9,29.6,11,26
O=c1c(-c2ccc(O)cc2)coc2cc(OC3OC(CO)C(O)C(O)C3O)cc(O)c12 (stereo not given),> 10,> 100,> 100,> 100,–,> 100 µM,–,> 100,–,> 100,–,> 100,> 10,> 100 µM,–,> 100,> 100,> 100,> 100,> 100
CC(C)(C)c1ccc(O)c(CN(Cc2cc(C(C)(C)C)ccc2O)C2CCCCC2)c1,–,> 53.9,–,30.8,–,31 µM,–,32.4,–,45.4,–,41.2,–,31.4 µM,–,42,–,34.1,–,28.4
NC(=Nc1nc(-c2ccccn2)cc2ccccc12)c1ccccn1,0.111,12.1,0.126,–,0.189,0.743 µM and 2.08 µM,0.198,> 100,0.135,–,0.336,> 56.7,0.0492,0.171 µM and 0.266 µM,0.0505,15.5,0.176,> 100,0.0462,> 78.1
CO[C@@H]1[C@H]2[C@@H](C)c3ccoc3C[C@@H]2[C@@]2(C)CC[C@H](OC(=O)c3ccccc3)[C@](C)(C(=O)O)[C@]2(O)[C@@H]1OC(=O)c1ccccc1,21.2,> 50,–,–,8.81,16.5 µM,14.3,> 50,12.1,> 50,8.83,33.5,7.12,13.6 µM,14.3,> 50,12,31.2,7.21,13.7
O=C(Nc1cccnc1)c1ccc2ccc3ccc(C(=O)Nc4cccnc4)nc3c2n1,0.225,> 100,> 100,> 100,–,–,–,> 100,0.195,> 100,0.0546,> 100,0.205,> 100 µM,0.231,> 100,–,> 100,0.271,> 100
CN(C)CCNC(=O)c1cccc2ncc(-c3ccccc3)nc12,–,29.4,–,26.5,–,16.8 µM,–,34.7,–,–,–,29.4,–,27.2 µM,–,> 93,–,30.5,–,24.1
